Measured values published in patent publication US20110301146A1 (ONCOTHERAPY SCIENCE, INC., priority 2008, published 2011).
pIC50: −log10 of the molar value.

target: T1, GSK-3beta (Homo sapiens, UniProt P49841); experiment: Z'-LYTE kinase assay (FRET, SER/THR 9 peptide); assay type: biochemical; settings: 0.04 ng/micro-l GSK-3beta (Invitrogen), 2 micro-M SER/THR 9 peptide, 15 micro-M ATP, 1 hour at room temperature, 1% DMSO
T1 construct: purchased Invitrogen
Protocol: The Z′-LYTE kinase assay kit employs a fluorescence resonance energy transfer (FRET) between two fluorophores, coumarin and fluorescein, attached to each end of a substrate peptide.
For 0% phosphorylation control, ATP was omitted from the reaction mixture. For 100% phosphorylation control, SER/THR 9 phosphopeptide was used in place of the SER/THR 9 peptide. Following 1 hour incubation at room temperature, the reaction was stopped by the addition of half assay volume of development solution and further incubated for 1 hour at room temperature. […] The extent of phosphorylation was determined according to the 0% and 100% phosphorylation control samples using the following equation: […]
IC50 values were calculated by nonlinear four parameter fit using SigmaPlot, version 10.0 (Systat Software, Inc.).

T1 sequence (P49841 whole entry): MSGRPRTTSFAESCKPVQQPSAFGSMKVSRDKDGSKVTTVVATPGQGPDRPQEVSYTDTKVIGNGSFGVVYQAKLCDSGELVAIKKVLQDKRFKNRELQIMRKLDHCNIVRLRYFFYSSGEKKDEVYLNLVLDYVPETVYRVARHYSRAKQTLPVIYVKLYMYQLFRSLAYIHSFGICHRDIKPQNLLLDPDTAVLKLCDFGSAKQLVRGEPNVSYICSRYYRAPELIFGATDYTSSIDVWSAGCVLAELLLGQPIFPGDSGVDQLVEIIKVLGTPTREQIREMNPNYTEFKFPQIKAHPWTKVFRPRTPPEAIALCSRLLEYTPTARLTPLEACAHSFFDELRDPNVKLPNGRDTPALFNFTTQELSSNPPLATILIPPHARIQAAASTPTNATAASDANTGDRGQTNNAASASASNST

Going from `O=C(NC[C@@H]1CCCNC1)c1ccc(O)c2[nH]c(Cc3cccs3)nc12` [Example 58, (R)-7-hydroxy-N-(piperidin-3-ylmethyl)-2-(thiophen-2-ylmethyl)-1H-benzo[d]imidazole-4-carboxamide] to `O=C(N[C@H]1CCCNC1)c1ccc(O)c2[nH]c(Cc3cccs3)nc12` [Example 59, (S)-7-hydroxy-N-(piperidin-3-yl)-2-(thiophen-2-ylmethyl)-1H-benzo[d]imidazole-4-carboxamide], the pIC50 falls from 7.00 to 6.77 (0.23 log units).

First: NC1CCCC(NC(=O)c2ccc(O)c3[nH]c(C4CC5CCC4C5)nc23)C1 (centres unmarked) [Example 55, N-(3-Aminocyclohexyl)-2-(bicyclo[2.2.1]heptan-2-yl)-7-hydroxy-1H-benzo[d]imidazole-4-carboxamide]
Second: O=C(NCC1CCCNC1)c1ccc(O)c2[nH]c(C3CC4CCC3C4)nc12 (centres unmarked) [Example 48, 2-(Bicyclo[2.2.1]heptan-2-yl)-7-hydroxy-N-(piperidin-3-ylmethyl)-1H-benzo[d]imidazole-4-carboxamide]
The pIC50 of the first is 0.57 log units lower: 6.60 for the first, 7.17 for the second.

Going from `O=C(NC1CCNCC1)c1ccc(O)c2[nH]c(C3CC3)nc12` [Example 10, 2-cyclopropyl-4-hydroxy-N-(piperidin-4-yl)-1H-benzo[d]imidazole-7-carboxamide] to `O=C(NC1CCNC1)c1ccc(O)c2[nH]c(C3CC3)nc12` (centres unmarked) [Example 12, 2-cyclopropyl-4-hydroxy-N-(pyrrolidin-3-yl)-1H-benzo[d]imidazole-7-carboxamide], the pIC50 falls from 7.52 to 6.68 (0.84 log units).

Going from `O=C(NCC1CCNCC1)c1ccc(O)c2[nH]c(C3CC3)nc12` [Example 5, 2-Cyclopropyl-4-hydroxy-N-(piperidin-4-ylmethyl)-1H-benzo[d]imidazole-7-carboxamide] to `O=C(NCC1CCCNC1)c1ccc(O)c2[nH]c(C3CC3)nc12` (centres unmarked) [Example 6, 2-Cyclopropyl-4-hydroxy-N-(piperidin-3-yl-methyl)-1H-benzo[d]imidazole-7-carboxamide], the pIC50 falls from 6.49 to 5.80 (0.69 log units). The first is the more potent here.

Going from `O=C(NC1CCNC1)c1ccc(O)c2[nH]c(-c3cccs3)nc12` (centres unmarked) [Example 44, 7-Hydroxy-N-(pyrrolidin-3-yl)-2-(thiophen-2-yl)-1H-benzo[d]imidazole-4-carboxamide] to `CN1CCCC(NC(=O)c2ccc(O)c3[nH]c(-c4cccs4)nc23)C1` (centres unmarked) [Example 41, 7-Hydroxy-N-(1-methylpiperidin-3-yl)-2-(thiophen-2-yl)-1H-benzo[d]imidazole-4-carboxamide], the pIC50 falls from 6.96 to 6.74 (0.22 log units).

With `O=C(N[C@H]1CCCNC1)c1ccc(O)c2[nH]c(-c3ccc(N4CCNCC4)s3)nc12` [Example 57, (S)-7-hydroxy-2-(5-(piperazin-1-yl)thiophen-2-yl)-N-(piperidin-3-yl)-1H-benzo[d]imidazole-4-carboxamide] the pIC50 was 7.42.
